The text below walks through data of article PMC11881906, “Development of xanthone derivatives as effective broad-spectrum antimicrobials: Disrupting cell wall and inhibiting DNA synthesis” (Science Advances, 2025).

Broadly, the MIC90 is the lowest concentration that inhibits either 90% of growth or 90% of the strains tested, depending on the study. Broadly, the HC50 is the concentration giving 50% haemolysis.

One series deals with E. coli ATCC 25922. The series is described as follows: MIC, broth microdilution. The class given is cell-based, Escherichia coli. The conditions noted are these: Escherichia coli, ATCC25922, 24 h, 24-hour incubation, MHB; read-out: MIC90 E. coli ATCC 25922. As to the method: (§1) MIC was determined using the broth microdilution method in accordance with Clinical and Laboratory Standards Institute guidelines. All compounds were dissolved in dimethyl sulfoxide (DMSO; final DMSO concentration of less than 0.5%) and sterile double-distilled water and then diluted with Mueller-Hinton broth (MHB). Each compound’s stock solution was serially twofold diluted, resulting in concentrations ranging from 0.39 to 100 μg/ml, and thereafter added to sterile 96-well plates. All bacterial cell suspensions were adjusted in MHB to attain a starting inoculum of 1 × 10^6 cells/ml. A total of 100 μl volume of the bacterial suspension was then added to each well. Following a 24-hour incubation at 37°C, the optical density at 600 nm (OD600) was confirmed by measuring absorbance at 600 nm with a BioTek microplate reader. […] All measurements were repeated three times with duplicates each time.
On the technique in general: Dilution methods test growth across graded concentrations, often in twofold steps.

The next series has as its system rabbit erythrocytes. The series is described as follows: Hemolysis assay. The class given is cell-based. The conditions noted are these: concentration causing 50% hemolysis of red blood cells; 1 hour, 37°C. The procedure: The hemolytic activity of antimicrobial agents was investigated as previously described ([70]). Briefly, the rabbit erythrocytes were centrifuged at 2500 rpm for 3 min before being washed twice with sterile phosphate-buffered saline (PBS) (pH 7.4). Subsequently, the erythrocytes were diluted with PBS to a final concentration of 8% (v/v). The DMSO-dissolved compounds were twofold serially diluted in PBS to achieve a final concentration with DMSO less than 0.5%. […] Sterile PBS and 0.2% Triton X-100 were used as negative and positive controls, respectively. After 1 hour of incubation at 37°C, the tested samples were centrifuged at 2500 rpm for 5 min, and aliquots of the supernatant were added to 96-well microplates. The hemoglobin release was determined by measuring the absorbance at 576 nm using a BioTek multimode reader. The percentage of hemolytic activity was calculated using the following formula: Hemolysis rate (%) = [OD576 (compound) − OD576 (PBS)]/[OD576 (Triton X-100) − OD576 (PBS)] × 100. All measurements were repeated three times with duplicates each time.

Another series deals with A. baumannii ATCC 17978. The series is described as follows: MIC, broth microdilution. The class given is cell-based. The conditions noted are these: Acinetobacter baumannii, ATCC17978; 24-hour incubation, MHB. The procedure:
as §1

The test system of another series is A. baumannii R2889. The series is described as follows: MIC, broth microdilution. The class given is cell-based. The following applies: Acinetobacter baumannii, 24-hour incubation, MHB. As to the method:
as §1

The test system of the next series is K. pneumonia ATCC 10031. The series is described as follows: MIC, broth microdilution. The class given is cell-based. The following applies: Klebsiella pneumoniae, ATCC10031; 24-hour incubation, MHB. As to the method: as §1
The subject of the next series is K. pneumonia ATCC 14581. The series is described as follows: MIC, broth microdilution. The following applies: Klebsiella pneumoniae, ATCC14581; 24-hour incubation, MHB. The class given is cell-based. The procedure:
as §1

The next series deals with MRSA N315. The series is described as follows: MIC, broth microdilution. The conditions noted are these: Staphylococcus aureus, 24-hour incubation, MHB, read-out: MIC90 MRSA N315. The class given is cell-based. The procedure:
as §1

Another series deals with MRSA NCTC 10442. The series is described as follows: MIC, broth microdilution. The class given is cell-based. The conditions noted are these: Staphylococcus aureus; 24-hour incubation, MHB; read-out: MIC90 MRSA NCTC 10442. The procedure:
as §1

Another series concerns P. aeruginosa ATCC 9027. The series is described as follows: MIC, broth microdilution. The class given is cell-based. The following applies: Pseudomonas aeruginosa, ATCC9027; 24-hour incubation, MHB. The procedure: as §1
The subject of a further series is S. aureus ATCC 29213. The series is described as follows: MIC, broth microdilution. The class given is cell-based. The following applies: Staphylococcus aureus, ATCC29213, 24 h, 24-hour incubation, MHB; read-out: MIC90 S. aureus ATCC 29213. The procedure: as §1
The test system of series [1] is tested strains (Gram-positive and Gram-negative bacteria). The series is described as follows: MIC, summary over the tested strains. The conditions noted are these: read-out: MICs against the tested strains. The class given is cell-based. As to the method: as §1
The mark [2] stands for this setting: Gram-positive and Gram-negative strains.

≈ marks a conversion by molar mass, not a printed value. Read-outs that look alike come from different tables or passages of the source.

As for `CC1(C)S[C@@H]2[C@H](NC(=O)[C@H](N)c3ccc(O)cc3)C(=O)N2[C@H]1C(=O)O` [AMO, amoxicillin, reference compound], the MIC90 in the series with E. coli ATCC 25922 is 6.25 µg/mL (≈ 17.1 µM). In addition, the 50% haemolytic concentration (HC50) in the series on rabbit erythrocytes is above 200 µg/mL.
In the case of `O=c1c2ccc(O)cc2oc2cc(O)cc(O)c12` [XT01], the MIC90 in the series on A. baumannii ATCC 17978 is above 50 µg/mL; in the series on A. baumannii R2889 it was above 50 µg/mL; with K. pneumonia ATCC 10031 it was above 50 µg/mL; in the series with K. pneumonia ATCC 14581 it was above 50 µg/mL; in the series on MRSA N315 it was 50 µg/mL (≈ 205 µM); in the series with MRSA NCTC 10442, 50 µg/mL (≈ 205 µM). The MIC90 was above 50 µg/mL against P. aeruginosa ATCC 9027, 50 µg/mL (≈ 205 µM) in the series with S. aureus ATCC 29213 and above 100 µg/mL with E. coli ATCC 25922. The HC50 with rabbit erythrocytes was above 200 µg/mL.
Regarding `CNCCCOc1ccc2c(=O)c3c(OCC=C(C)C)cc(OCCCNC)cc3oc2c1` [XT08], the MIC90 in the series on MRSA N315 worked out at 12.5 µg/mL (≈ 27.5 µM); with MRSA NCTC 10442, 12.5 µg/mL (≈ 27.5 µM); in the series with S. aureus ATCC 29213 it was 12.5 µg/mL (≈ 27.5 µM); in the series with E. coli ATCC 25922 it was 25 µg/mL (≈ 55 µM). The same compound came in with an HC50 in the series on rabbit erythrocytes above 200 µg/mL. Moreover, in [1] (setting [2]), the MIC lay within 6.25 to 50 µg/mL (≈ 13.7 to 110 µM).
In the case of `CCN(CC)CCCOc1ccc2c(=O)c3c(OCC=C(C)C)cc(OCCCN(CC)CC)cc3oc2c1` [XT09], the MIC90 in the series with MRSA N315 is 12.5 µg/mL (≈ 23.2 µM); in the series on MRSA NCTC 10442, 6.25 µg/mL (≈ 11.6 µM); in the series on S. aureus ATCC 29213, 6.25 µg/mL (≈ 11.6 µM); in the series with E. coli ATCC 25922, 50 µg/mL (≈ 92.8 µM). Moreover, in the series with rabbit erythrocytes, the HC50 was above 200 µg/mL. The MIC in series [1] (setting [2]) lay within 6.25 to 50 µg/mL (≈ 11.6 to 92.8 µM).
As for `CCCCN(CCCC)CCCOc1ccc2c(=O)c3c(OCC=C(C)C)cc(OCCCN(CCCC)CCCC)cc3oc2c1` [XT10], the MIC90 in the series on MRSA N315 is 6.25 µg/mL (≈ 9.6 µM); in the series on MRSA NCTC 10442 it was 12.5 µg/mL (≈ 19.2 µM); in the series on S. aureus ATCC 29213, 12.5 µg/mL (≈ 19.2 µM); in the series with E. coli ATCC 25922, above 50 µg/mL. Further, in the series on rabbit erythrocytes, the HC50 is above 200 µg/mL.
Take `CC(C)=CCOc1cc(OCCCN2CCCC2)cc2oc3cc(OCCCN4CCCC4)ccc3c(=O)c12` [XT12]: the MIC90 is 12.5 µg/mL (≈ 23.4 µM) in the series on MRSA N315, 6.25 µg/mL (≈ 11.7 µM) with MRSA NCTC 10442, 6.25 µg/mL (≈ 11.7 µM) with S. aureus ATCC 29213 and 25 µg/mL (≈ 46.8 µM) with E. coli ATCC 25922. This compound also displayed an HC50 in the series on rabbit erythrocytes above 200 µg/mL. Moreover, the MIC in series [1] (setting [2]) is 6.25 to 25 µg/mL (≈ 11.7 to 46.8 µM).
With `CC(C)=CCOc1cc(OCCCNCCN(CCN)CCN)cc2oc3cc(OCCCNCCN(CCN)CCN)ccc3c(=O)c12` [XT13], the MIC90 in the series on MRSA N315 amounted to 6.25 µg/mL (≈ 9.13 µM); in the series on MRSA NCTC 10442 it was 6.25 µg/mL (≈ 9.13 µM); with S. aureus ATCC 29213, 6.25 µg/mL (≈ 9.13 µM); in the series with E. coli ATCC 25922, 50 µg/mL (≈ 73 µM). Further, in the series on rabbit erythrocytes, the HC50 was above 200 µg/mL. Also, the MIC in [1] (setting [2]) is 6.25 to 50 µg/mL (≈ 9.13 to 73 µM).
Take `CNCCCOc1ccc2c(=O)c3c(OCCCC(F)(F)F)cc(OCCCNC)cc3oc2c1` [XT16]: the MIC90 in the series on MRSA N315 was above 50 µg/mL; with MRSA NCTC 10442, above 50 µg/mL; with S. aureus ATCC 29213, 50 µg/mL (≈ 101 µM); in the series with E. coli ATCC 25922, above 100 µg/mL. This compound came in with an HC50 with rabbit erythrocytes above 200 µg/mL. Moreover, the MIC in series [1] (24 h) lay within 50 to 100 µg/mL (≈ 101 to 201 µM).
Regarding `CNCCCCOc1ccc2c(=O)c3c(OCC=C(C)C)cc(OCCCCNC)cc3oc2c1` [XT31], the MIC90 with MRSA N315 was 6.25 µg/mL (≈ 13 µM); in the series with MRSA NCTC 10442 it was 6.25 µg/mL (≈ 13 µM); in the series with S. aureus ATCC 29213 it was 6.25 µg/mL (≈ 13 µM); with E. coli ATCC 25922 it was 12.5 µg/mL (≈ 25.9 µM). Besides, the HC50 with rabbit erythrocytes was above 200 µg/mL.
Consider `CCN(CC)CCCCOc1ccc2c(=O)c3c(OCC=C(C)C)cc(OCCCCN(CC)CC)cc3oc2c1` [XT32], for which the MIC90 with MRSA N315 turned out to be 6.25 µg/mL (≈ 11 µM); in the series on MRSA NCTC 10442, 3.12 µg/mL (≈ 5.51 µM); with S. aureus ATCC 29213, 3.12 µg/mL (≈ 5.51 µM); in the series with E. coli ATCC 25922 it was 100 µg/mL (≈ 176 µM). Also, the HC50 in the series with rabbit erythrocytes is above 200 µg/mL.
